Test results: patent US4564639A, “N-(2,6-Difluorobenzoyl-N-'-(2-fluoro-4-halophenyl)urea” (priority 1982, dated 1986)
Like-named read-outs stand apart in the source and are kept apart here.

How the values were obtained:
Chilo suppressalis = experiment: Insecticidal effect against Chilo suppressalis, dipped rice seedlings; assay type: in vivo; conditions: 96 h, read-out: Mortality, % (spraying concn.)
Experimental: (§1) The mortalities in Test Examples 1 through 3 were calculated by the formula as mentioned below: [formula]
Insecticidal effect against Chilo suppressalis
By the same procedure as in Example 9, the test compounds comprising the compounds of the present invention, i.e. Compound Nos. 1, 2, 3 and 4, and control compounds, i.e. Compounds A through G, were processed into wettable powder, respectively, and the aqueous solutions of 0.4 and 2 ppm in concentration were prepared therefrom by the same method as stated under (a) of Test Example 1, whereby 10 rice seedlings (the height of a plant of 2 cm) were dipped in each of the insecticide solutions for 30 minutes. The seedlings thus treated were placed in the respective glass containers (diameter of 2 cm and depth of 5 cm), into which 10 third-instar larvae of Chilo suppressalis were released. The containers were covered with aluminum foil and allowed to stand in a room (25° C.), and a number of dead larvae 4 days after the larvae were released was checked.

Plutella xylostella = experiment: Insecticidal effect against Plutella xylostella, sprayed radish seedlings; assay type: in vivo
Experimental: as §1
Insecticidal effect against Plutella xylostella
By the same procedure as in Example 9, the test compounds comprising the compounds of the present invention, i.e., Compound Nos. 1, 2, 3 and 4, and control compounds, i.e. Compounds A through G, were processed into wettable powder, and the aqueous solutions of 50 ppm in concentration were prepared therefrom by the same method as stated under (a) of Test Example 1. 20 ml of each of the aqueous solutions was sprayed on seedlings of radish (25 days after germination) grown in pots in accordance with the same method as described under (a) of Test Example 1. 2 hours after the spraying, two true leaves were cut away and contained in their respective ice cream cups (diameter of 6 cm and depth of 4 cm), into which 10 second-instar larvae of Plutella xylostella were released. After the larvae were released, the above-mentioned cups were placed in a room (25° C.), and a number of dead larvae after 48 hours was checked.

Spodoptera litura [1] = experiment: Insecticidal effect against Spodoptera litura, leaf spraying (Table 1, I); assay type: in vivo; conditions: read-out: mortality (I, spraying concn.)
Experimental: (§2) Insecticidal effect against Spodoptera litura
(a) The test compounds which comprise:
The above test compounds and control compounds were each processed into wettable powders in accordance with the same formula as in Example 9, followed by dilution with water to prepare emulsions containing 0.4 and 2 ppm, respectively. A spreader, Dyne® (produced by Takeda Chemical Industries, Japan), was added to the emulsions in the proportion of 0.03 volume % against the total volume, respectively, and 20 ml of each of the emulsions so obtained was sprayed by use of a spray gun (spraying pressure of 1 kg/cm^2) on seedlings (14 days after germination) of soybean grown in pots in a spray chamber. 2 hours after spraying, two true leaves were cut away and contained each in their respective ice-cream cup (diameter of 6 cm and depth of 4 cm), into which 10 third-instar larvae of Spodoptera litura was released. After the releasing of larvae, the cups were placed in a room (25° C.), and the number of larvae, […] was checked.
as §1

Spodoptera litura [2] = experiment: Insecticidal effect against Spodoptera litura, direct spraying on larvae (Table 1, II); assay type: in vivo; conditions: read-out: mortality (II, spraying concn.)
Experimental: as §2
(b) By the same procedure as in Example 7, the test compounds comprising the compounds of the present invention, i.e. Compound Nos. 1, 2, 3 and 4, and control compounds, i.e. Compounds A through G, were each processed into emulsifiable concentrates, which were then diluted with water to produce the aqueous solutions (containing 0.03 % v/v of added spreader, Dyne® (produced by Takeda Chemical Industries, Japan)) containing 10 and 50 ppm of the test compounds, respectively. 20 ml of each of the aqueous solutions was sprayed on 10 third-instar larvae of Spodoptera litura placed in a cage of wire netting. 30 minutes after the spraying, the larvae were taken out of the cage of wire netting and placed in an ice cream cup (diameter of 6 cm and depth of 4 cm) containing soybean leaves, and a number of dead larvae was checked in accordance with the same method as the examination method as stated under (a) except that the larvae were allowed to stand for 48 hours in place of 96 hours.
as §1

Spodoptera litura [3] = experiment: Insecticidal effect against Spodoptera litura, soil treatment with granules (Table 1, III); assay type: in vivo; conditions: 96 h, 250 mg of 2 weight % granules in soil of potted soybean, leaves cut 10 days after treatment, third-instar larvae, read-out: mortality (III, treatment amount)
Experimental: as §2
(c) Using the compounds of the present invention, i.e. Compound Nos. 1, 2, 3 and 4, and control compounds, i.e. Compounds A through G, as the test compounds, granules containing 2 weight % of the test compounds were prepared by the same procedure as in Example 13, and 250 and 500 mg of each of the granules were admixed, for the purpose of treatment, into the soil around roots of soybean plants grown in pots (diameter of 9 cm), respectively. The pots so treated were placed in a glass room (28° C.), and 10 days after the treatment, two true leaves were cut away and contained each in ice cream cups (diameter of 6 cm and depth of 4 cm). 10 third-instar larvae of Spodoptera litura were released into each of the ice cream cups, and a number of dead larvae was checked in accordance with the same method as the examination method as stated under (a).
as §1

Oral toxicity in mice = conditions: mouse, in vivo
Toxicity to fishes = experiment: Toxicity to fishes; set-up: species or system Orizias latipes; conditions: in vivo; 72 hours later, orange-red killifish; read-out: TLm (the concentration at which 50% of the test fish dies)
insect = experiment: Insecticidal and ovicidal effect (general statement); assay type: in vivo; conditions: in words
plant body = experiment: Penetration into the plant body (general statement); conditions: in words
[4] = 0.4 ppm, rice seedlings dipped 30 minutes, third-instar larvae, 4 days
[5] = 2 ppm, rice seedlings dipped 30 minutes, third-instar larvae, 4 days
[6] = 0.4 ppm, wettable powder emulsion sprayed on soybean seedlings, third-instar larvae, 96 hours
[7] = 2 ppm, wettable powder emulsion sprayed on soybean seedlings, third-instar larvae, 96 hours
[8] = emulsifiable concentrate solution sprayed on third-instar larvae, 48 hours
[9] = 50 ppm sprayed on radish seedlings, second-instar larvae, 48 hours, read-out: Mortality, %

SMILES	mortality at 0.4 ppm (Chilo suppressalis; [4])	mortality at 2 ppm (Chilo suppressalis; [5])	mortality at 50 ppm (Plutella xylostella; 48 h)	mortality at 0.4 ppm (Spodoptera litura [1]; [6])	mortality at 2 ppm (Spodoptera litura [1]; [7])	mortality at 10 ppm (Spodoptera litura [2]; 10 ppm, emulsifiable concentrate solution sprayed on third-instar larvae, 48 hours)	mortality at 50 ppm (Spodoptera litura [2]; [8])	mortality at 50 ppm (Plutella xylostella; [9])	mortality at 250 mg (Spodoptera litura [3])	mortality at 0.4 ppm (Chilo suppressalis)	mortality at 2 ppm (Chilo suppressalis)	LD50 (Oral toxicity in mice)	LC50 at 72 h (Toxicity to fishes)	insecticidal and ovicidal effect (insect)	mortality at 10 ppm (Spodoptera litura [2]; 48 h)	action to penetrate into the plant body (plant body)	mortality at 0.4 ppm (Spodoptera litura [1]; in Glycine max, 96 h)	mortality at 2 ppm (Spodoptera litura [1]; in Glycine max, 96 h)
O=C(NC(=O)c1c(F)cccc1F)Nc1ccc(Cl)cc1 [Compound A, N-2,6-difluorobenzoyl-N'-4-chlorophenylurea]	5%	40%	20%	20%	30%	0%	10%											
O=C(NC(=O)c1c(Cl)cccc1Cl)Nc1ccc(Cl)cc1Cl [Compound B, N-2,6-dichlorobenzoyl-N'-2,4-dichlorophenylurea]	0%	0%						0%	0%									
O=C(NC(=O)c1c(Cl)cccc1Cl)Nc1ccc(Cl)c(F)c1 [Compound C, N-2,6-dichlorobenzoyl-N'-3-fluoro-4-chlorophenylurea]	0%	0%		20%	30%			10%	0%									
O=C(NC(=O)c1c(F)cccc1F)Nc1ccc(Cl)c(F)c1 [Compound D, N-2,6-difluorobenzoyl-N'-3-fluoro-4-chlorophenylurea]	10%	45%		25%	45%		30%	45%	0%									
O=C(NC(=O)c1c(F)cccc1F)Nc1ccc(Cl)c(Cl)c1 [Compound E, N-2,6-difluorobenzoyl-N'-3,4-dichlorophenylurea]	0%	0%		20%	40%			40%	0%									
O=C(NC(=O)c1c(Cl)cccc1Cl)Nc1ccc(F)cc1F [Compound F, N-2,6-dichlorobenzoyl-N'-2,4-difluorophenylurea]	0%	0%						20%	0%									
O=C(NC(=O)c1c(F)cccc1F)Nc1ccc(I)c(F)c1 [Compound G, N-2,6-difluorobenzoyl-N'-3-fluoro-4-iodophenylurea]	10%	55%		5%	35%		5%	50%	0%									
O=C(NC(=O)c1c(F)cccc1F)Nc1ccc(Cl)cc1F [Compound No. 1, N-2,6-Difluorobenzoyl-N'-2-fluoro-4-chlorophenylurea]								100%		80%	100%	≥ 3000 mg/kg	≥ 10 µg/mL	excellent insecticidal and ovicidal effect	60%			
O=C(NC(=O)c1c(F)cccc1F)Nc1ccc(Br)cc1F [Compound No. 2, N-2,6-difluorobenzoyl-N'-2-fluoro-4-bromophenylurea]								100%	80%	70%	100%	≥ 3000 mg/kg		excellent insecticidal and ovicidal effect	60%			
O=C(NC(=O)c1c(F)cccc1F)Nc1ccc(F)cc1F [Compound No. 3, N-2,6-difluorobenzoyl-N'-2,4-difluorophenyl urea]								95%	100%	40%	80%	≥ 3000 mg/kg			35%	excellent action to penetrate into the plant body	80%	
O=C(NC(=O)c1c(F)cccc1F)Nc1ccc(I)cc1F [Compound No. 4, N-2,6-difluorobenzoyl-N'-2-fluoro-4-iodophenylurea]								100%	55%	75%	100%	≥ 3000 mg/kg			65%		100%	100%
